Where two headings read alike, the source gives them in different places.
Key:
human PPARγ = biological target: T1, human PPARγ (Homo sapiens, UniProt P37231); assay: human PPARγ nuclear reporter assay (luciferase); settings: reporter cells incubated 24 h, luminescence
T1 sequence (P37231 1-505): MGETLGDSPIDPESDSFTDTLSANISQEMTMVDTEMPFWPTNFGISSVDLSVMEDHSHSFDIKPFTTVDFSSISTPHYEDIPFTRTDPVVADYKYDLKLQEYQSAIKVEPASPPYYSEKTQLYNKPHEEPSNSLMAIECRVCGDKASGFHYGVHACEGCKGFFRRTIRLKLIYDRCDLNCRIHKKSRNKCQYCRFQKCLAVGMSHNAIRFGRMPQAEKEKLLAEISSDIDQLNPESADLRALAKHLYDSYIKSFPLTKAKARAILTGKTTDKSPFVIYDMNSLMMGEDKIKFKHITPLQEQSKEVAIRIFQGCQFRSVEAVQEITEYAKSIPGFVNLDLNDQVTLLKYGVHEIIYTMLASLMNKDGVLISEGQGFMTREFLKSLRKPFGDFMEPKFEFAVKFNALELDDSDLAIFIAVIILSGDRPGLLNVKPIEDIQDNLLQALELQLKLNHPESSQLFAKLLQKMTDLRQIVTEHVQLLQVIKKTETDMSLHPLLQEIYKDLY
Experimental: A human PPARγ nuclear reporter assay was purchased from Indigo Biosciences Inc. (Cat. #IB00101, State College, PA, USA) and was performed according to the manufacturer’s instructions. Briefly, the reporter cells of the assays include a luciferase reporter gene functionally linked to a PPARγ-responsive promoter. Thus, quantifying changes in luciferase expression in the treated reporter cells provides a sensitive surrogate measure of the changes in PPARγ activity. […] A sigmoidal dose–response analysis was performed to determine the half-maximal effective concentration (EC50) values for each TZD (GraphPad Prism 8.4.3, San Diego, CA, USA).

[1] = lung tissue binding by equilibrium dialysis; format: in vitro ADME; settings: preterm rabbit lung homogenate, 4 h, 37 °C
Experimental: In vitro lung tissue binding was also determined by equilibrium dialysis as described above. Preterm rabbit lungs (New Zealand White, BIOIVT) were homogenized using a Precellys tissue homogenizer (Bertin instruments, Montigny-le-Bretonneux, France). Precellys lysing vials (CK28-R, Bertin instruments) were filled with lung and buffer according to the following proportion: 1 g of tissue and 5 mL of ice-cold PBS (dilution 1:6). At the end of the homogenization process, a pool of lung homogenate was prepared mixing equal amount of homogenate from three different donors. Test compounds and the positive control were diluted in the pooled lung homogenate to a final concentration of […] and then dispensed into the red chamber of the RED device inserts. PBS was dispensed into the other side. Upon completion of 4 h of incubation (37 °C under shaking), equal aliquots were removed from each chamber and matrix matched with even volumes of lung homogenate or buffer for LC-MS/MS analyses.
Free and Bound percentages of the compounds were calculated as follows:(3) %Free=Area buffer sample/Area lung homogenate sample×100 (4) % Bound=100−%Free

db/db diabetic mice = tested on: db/db diabetic mice; set-up: method as in PMID 11600232, PMID 28656106; settings: compared with RGZ and PGZ; cited from earlier work
Caco-2 cell monolayers = assay: Caco-2 permeability assay; format: in vitro ADME
Experimental: (§1) Caco-2 cells were purchased from ReadyCell (Barcelona, Spain). The cells arrived already seeded and differentiated (21-days) in 96-well plates (CacoReady 96-well kits, ReadyCell). Cells were maintained in a cell culture medium: Dulbecco’s modified Eagle’s medium (DMEM) 1 g/L glucose containing 10% fetal bovine serum, 1% L-glutamine 200 mM, and 1% penicillin (10,000 U/mL)–streptomycin (10 mg/mL), all from Merck KGaA. The buffer used in the assay was Hanks Balanced Salt Solution (HBSS, Merck). Control compounds were: sulpiride (low permeability control), metoprolol (high permeability control), talinolol (P-glycoprotein transport (Pgp) substrate control), and GF120918 (Elacridar, Pgp inhibitor), all purchased from Merck KGaA.
(§2) The day of the experiment, the integrity of the cell monolayers was assessed before and after the assay by measuring the transepithelial electrical resistance (TEER). The permeability of the compounds across the cell monolayer was determined by measuring their transport in both directions: apical to basolateral (A → B) and basolateral to apical (B → A) in the absence and presence of Elacridar (a known P-gp inhibitor). The donor working solution was prepared by dilution of the DMSO stock of the test compound or positive control with HBSS (pH 7.4) to 10 µM. For A → B directional transport, the donor working solution (with test compound or positive control, with or without P-gp inhibitor) was added to the apical (A) and HBSS was added to the basolateral (B) compartment. For B → A directional transport, the donor working solution (with positive control or test compound […], with or without P-gp inhibitor) was added to the basolateral (B) and HBSS was added to the apical (A) compartment. The assay was performed with a Hamilton Star Lab robotic system. Samples were collected at t0 and 2 h after incubation (5% CO2, 95% relative humidity, 37 °C) for LC-MS/MS analyses.
(§3) Apparent permeability (Papp) was calculated with the following equation: (5) Papp(cm/sec)=(Vr/C0)×(1/A)×(Cr(t)/t) where Vr is the volume of the solution in the receiving compartment (mL); C0 is the initial test compound concentration in the donor compartment (expressed as area ratio); A is the membrane surface area (0.14 cm^2); Cr (t) is the measured concentration of the receiver well at time t120 (expressed as area ratio); and t is time of incubation (sec).

[2] = plasma protein binding by equilibrium dialysis; format: in vitro ADME; set-up: fraction unbound at 4 h: dose or concentration left out as unconfirmed; settings: 37 °C
Experimental: In vitro plasma protein binding was determined in preterm rabbit plasma (New Zealand White Pooled Gender, BIOIVT, Hicksville, NY, USA) by equilibrium dialysis using Thermo Fisher Scientific Pierce RED rapid equilibrium dialysis devices (Device Inserts 8K MWCO, Thermo Fisher Scientific, Waltham, MA, USA). The assay was performed using a Tecan Evoware robotic system (Männedorf, Switzerland). Test compounds and the positive control were diluted in the pooled plasma (three donors) to a final concentration of […] and then dispensed into the red chamber of the RED device inserts. Phosphate-Buffered Saline (PBS, from Merck KGaA, Darmstadt, Germany) was dispensed into the other side. Upon completion of 4 h of incubation (37 °C under shaking), equal aliquots were removed from each chamber and matrix matched with even volumes of plasma or buffer for LC-MS/MS analyses.
Free and Bound percentages of the compounds were calculated as follows:(1) %Free=Area buffer sample/Area plasma sample×100 (2) % Bound=100−%Free

[3] = Caco-2 permeability assay; format: in vitro ADME; settings: human, basolateral to apical
[4] = Caco-2 permeability assay; format: in vitro ADME; settings: human, apical to basolateral
Experimental: as §1, §2, §3

[5] = tested on: patients with type 2 diabetes; settings: type II diabetes patients, compared with RZG; cited from earlier work

Row | SMILES | EC50 (human PPARγ) | Lung Tissue Binding (%) [1] | plasma glucose and TG reductions (db/db diabetic mice) | Papp (A–B) (Caco-2 cell monolayers; apical to basolateral, 10 µM, 2 h, without Pgp inhibitor) | Papp with Pgp Inhibitor (A–B) (Caco-2 cell monolayers; apical to basolateral, with Elacridar) | Papp (B–A) (Caco-2 cell monolayers; basolateral to apical, 2 h, without Pgp inhibitor) | Papp with Pgp Inhibitor (B–A) (Caco-2 cell monolayers; basolateral to apical, with Elacridar) | Plasma Protein Binding (%) ([2]; preterm rabbit plasma, 4 h) | Papp B→A at 2 h, 10 µM ([3]; Caco-2, pH 7.4, with Elacridar (GF120918), concentration not given, with Elacridar, read-out: Papp with Pgp Inhibitor (B–A) (converted)) | Papp B→A at 2 h, 10 µM ([3]; Caco-2, pH 7.4, 2 h, without Pgp inhibitor, read-out: Papp (B–A) (converted)) | Papp A→B at 2 h, 10 µM ([4]; Caco-2, pH 7.4, with Elacridar (GF120918), concentration not given, with Elacridar, read-out: Papp with Pgp Inhibitor (A–B)) | Papp A→B at 2 h, 10 µM ([4]; Caco-2, pH 7.4, 10 µM, 2 h, without Pgp inhibitor, read-out: Papp (A–B)) | plasma triglycerides [5] | fraction unbound at 4 h ([2]; both sexes, New Zealand White, preterm rabbit plasma (pooled))
1 | Cc1nn(CCOc2ccc(CC3SC(=O)NC3=O)cc2)c(=O)c2ccccc12 (stereo not drawn) [DRF-2546] | 602 nM | 91.8 ± 1.8% | superior | 2.29e-05 ± 3e-07 cm/s | 2.86e-05 ± 1.5e-06 cm/s | 1.87e-05 ± 8e-06 cm/s | 1.58e-05 ± 3.4e-06 cm/s | 98.4 ± 0.3% | – | – | – | – | – | –
2 | CCc1ccc(CCOc2ccc(CC3SC(=O)NC3=O)cc2)nc1 (stereo not drawn) [PGZ, pioglitazone] | – | 95.6 ± 2.1% | – | – | – | – | – | – | 25.4 ×10⁻⁶ cm/s | 15.3 ×10⁻⁶ cm/s | 12.3 ×10⁻⁶ cm/s | 11.8 ×10⁻⁶ cm/s | significant reduction | 0.033
